{
  "source": "patent EP2928896B1",
  "about": "“SOLID FORM OF DIHYDRO-PYRIDO-OXAZINE DERIVATIVE” (NOVARTIS AG, priority 2012, dated 2014)",
  "key": {"[1]": {"molecular_target": "PI3K alpha (Homo sapiens, UniProt P42336)", "sequence (P42336 with tags, fused parts or gaps limits assumed)": "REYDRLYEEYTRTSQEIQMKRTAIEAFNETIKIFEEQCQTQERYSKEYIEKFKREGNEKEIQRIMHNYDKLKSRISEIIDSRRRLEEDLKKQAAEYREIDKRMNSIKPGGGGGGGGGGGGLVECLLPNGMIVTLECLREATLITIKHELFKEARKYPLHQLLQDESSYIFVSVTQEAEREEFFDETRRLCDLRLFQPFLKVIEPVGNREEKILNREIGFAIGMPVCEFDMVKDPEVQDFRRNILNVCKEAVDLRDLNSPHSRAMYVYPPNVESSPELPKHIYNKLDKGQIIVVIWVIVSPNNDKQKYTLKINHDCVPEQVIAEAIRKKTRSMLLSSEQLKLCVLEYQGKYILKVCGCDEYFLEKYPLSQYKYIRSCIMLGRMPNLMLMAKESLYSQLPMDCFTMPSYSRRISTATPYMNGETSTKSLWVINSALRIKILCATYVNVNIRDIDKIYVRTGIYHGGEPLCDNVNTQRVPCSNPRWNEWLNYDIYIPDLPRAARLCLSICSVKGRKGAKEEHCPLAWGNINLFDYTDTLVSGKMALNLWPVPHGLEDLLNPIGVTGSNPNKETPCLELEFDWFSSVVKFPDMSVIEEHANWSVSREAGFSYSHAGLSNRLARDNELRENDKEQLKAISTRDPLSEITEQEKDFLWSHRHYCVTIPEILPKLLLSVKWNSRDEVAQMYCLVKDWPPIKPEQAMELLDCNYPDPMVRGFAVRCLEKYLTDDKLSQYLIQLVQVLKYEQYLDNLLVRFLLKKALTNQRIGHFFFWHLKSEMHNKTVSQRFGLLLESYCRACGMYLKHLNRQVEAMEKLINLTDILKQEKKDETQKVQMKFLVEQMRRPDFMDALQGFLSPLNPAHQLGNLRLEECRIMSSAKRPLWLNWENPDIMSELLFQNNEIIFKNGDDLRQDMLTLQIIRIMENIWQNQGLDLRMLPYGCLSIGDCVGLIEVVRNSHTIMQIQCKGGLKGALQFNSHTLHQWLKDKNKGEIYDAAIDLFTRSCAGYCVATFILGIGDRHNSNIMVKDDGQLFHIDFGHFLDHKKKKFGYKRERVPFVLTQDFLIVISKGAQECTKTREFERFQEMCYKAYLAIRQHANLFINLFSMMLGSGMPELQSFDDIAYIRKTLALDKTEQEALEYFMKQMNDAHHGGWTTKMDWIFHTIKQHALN", "test": "Enzymatic PI3K alpha isoform inhibition (lipid kinase activity, Kinase-Glo luminescence / ATP depletion)", "format": "biochemical", "from_the_text": "The reaction is started by the addition of PI3 kinase, e.g. PI3 kinase δ.\nThe reaction is started by the addition of ATP."}, "[2]": {"molecular_target": "T1, PI3K delta (Homo sapiens, UniProt O00329)", "T1 construct": "for the full-length p110-d subunit are generated and fused by overlapping PCR; p85 iSH2 (inter SH2 domain) fusion partner (N); His tag (C); made in house; host or cells: baculovirus; Tn5 (Trichoplusia ni) or TiniPro insect cells", "T1 sequence (O00329 with tags, fused parts or gaps limits assumed)": "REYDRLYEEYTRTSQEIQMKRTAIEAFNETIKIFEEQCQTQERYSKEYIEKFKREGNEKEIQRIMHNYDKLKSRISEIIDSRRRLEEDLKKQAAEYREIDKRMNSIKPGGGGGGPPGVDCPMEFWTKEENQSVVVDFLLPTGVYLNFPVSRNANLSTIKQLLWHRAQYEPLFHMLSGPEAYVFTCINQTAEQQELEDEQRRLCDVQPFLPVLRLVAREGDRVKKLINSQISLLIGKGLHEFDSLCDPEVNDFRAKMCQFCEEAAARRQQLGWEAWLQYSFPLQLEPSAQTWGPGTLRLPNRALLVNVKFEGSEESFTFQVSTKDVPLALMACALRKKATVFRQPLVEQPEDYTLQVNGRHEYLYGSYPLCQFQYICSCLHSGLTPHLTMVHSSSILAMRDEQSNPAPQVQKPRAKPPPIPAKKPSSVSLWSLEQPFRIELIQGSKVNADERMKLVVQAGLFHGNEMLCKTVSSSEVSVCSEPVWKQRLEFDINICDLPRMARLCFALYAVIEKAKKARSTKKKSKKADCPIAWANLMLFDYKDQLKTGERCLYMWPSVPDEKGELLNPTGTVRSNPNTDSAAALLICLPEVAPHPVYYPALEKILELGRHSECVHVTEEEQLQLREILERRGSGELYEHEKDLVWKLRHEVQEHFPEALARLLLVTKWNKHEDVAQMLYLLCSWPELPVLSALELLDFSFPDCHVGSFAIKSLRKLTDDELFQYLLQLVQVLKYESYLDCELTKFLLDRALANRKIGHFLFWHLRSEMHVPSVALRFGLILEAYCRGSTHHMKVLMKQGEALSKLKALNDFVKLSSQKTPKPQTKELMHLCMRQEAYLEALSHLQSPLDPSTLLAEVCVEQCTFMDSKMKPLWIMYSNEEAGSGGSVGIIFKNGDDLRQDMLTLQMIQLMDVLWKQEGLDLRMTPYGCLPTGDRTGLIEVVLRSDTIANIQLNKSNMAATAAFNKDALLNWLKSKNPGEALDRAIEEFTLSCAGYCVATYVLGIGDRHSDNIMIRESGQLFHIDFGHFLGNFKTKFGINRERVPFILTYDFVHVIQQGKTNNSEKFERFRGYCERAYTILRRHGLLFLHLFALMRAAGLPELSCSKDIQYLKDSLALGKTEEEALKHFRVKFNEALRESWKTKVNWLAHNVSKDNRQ", "test": "Enzymatic PI3K delta isoform inhibition (lipid kinase activity, Kinase-Glo luminescence / ATP depletion)", "format": "biochemical"}, "[3]": {"molecular_target": "T2, PI3Kδ (Homo sapiens, UniProt O00329)", "T2 construct": "expressed in transfected cells", "T2 sequence (O00329 1-1044)": "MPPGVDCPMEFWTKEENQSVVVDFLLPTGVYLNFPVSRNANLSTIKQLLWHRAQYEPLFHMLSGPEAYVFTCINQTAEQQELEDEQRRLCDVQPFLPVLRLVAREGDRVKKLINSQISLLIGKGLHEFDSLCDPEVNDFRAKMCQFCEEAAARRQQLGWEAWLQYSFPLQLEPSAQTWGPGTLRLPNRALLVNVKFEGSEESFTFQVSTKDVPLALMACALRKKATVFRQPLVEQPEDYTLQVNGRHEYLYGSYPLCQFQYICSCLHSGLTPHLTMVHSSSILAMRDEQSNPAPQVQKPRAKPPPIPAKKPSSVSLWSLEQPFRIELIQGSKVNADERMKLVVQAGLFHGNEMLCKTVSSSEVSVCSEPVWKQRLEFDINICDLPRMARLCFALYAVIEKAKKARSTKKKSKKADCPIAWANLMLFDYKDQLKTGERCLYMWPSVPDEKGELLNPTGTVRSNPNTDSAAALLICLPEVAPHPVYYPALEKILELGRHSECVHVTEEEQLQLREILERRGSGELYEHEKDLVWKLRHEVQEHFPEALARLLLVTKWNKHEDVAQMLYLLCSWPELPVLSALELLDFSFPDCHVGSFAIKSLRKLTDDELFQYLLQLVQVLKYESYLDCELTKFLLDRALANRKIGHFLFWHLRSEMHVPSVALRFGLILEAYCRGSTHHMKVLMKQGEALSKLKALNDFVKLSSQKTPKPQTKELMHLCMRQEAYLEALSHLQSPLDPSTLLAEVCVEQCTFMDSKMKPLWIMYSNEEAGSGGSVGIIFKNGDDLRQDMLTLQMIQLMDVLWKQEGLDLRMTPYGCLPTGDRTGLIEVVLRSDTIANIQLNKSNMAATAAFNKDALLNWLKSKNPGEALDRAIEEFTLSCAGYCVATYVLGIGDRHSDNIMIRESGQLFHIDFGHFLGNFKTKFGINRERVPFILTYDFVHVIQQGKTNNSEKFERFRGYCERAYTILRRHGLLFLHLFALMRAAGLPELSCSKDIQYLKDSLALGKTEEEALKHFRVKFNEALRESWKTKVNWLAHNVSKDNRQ", "test": "PI3K-mediated Akt 1/2 (S473) phosphorylation in Rat-1 cells overexpressing myristoylated PI3K delta (AlphaScreen SureFire)", "format": "cell-based", "description": "Rat-1 cells stably overexpressing a myristoylated form of the catalytic subunit of human phosphoinositide-3 kinase (PI3K) alpha, beta or delta were plated in 384-well plates at a density of 7500 (PI3K alpha), 6200 (PI3K beta), or 4000 (PI3K delta) cells in 30ul complete growth medium (Dulbecco's modified Eagle's medium (DMEM high glucose) supplemented with 10% (v/v) fetal bovine serum, 1% (v/v) MEM non essential amino acids, 10mM HEPES, 2mM L-glutamine, 10 µg/mL puromycin and 1% (v/v) Penicillin/Streptomycin) and were incubated at 37%C / 5%CO2 / 95% humidity for 24h. Compounds were diluted in 384-well compound plates to obtain 8-point serial dilutions for 40 test compounds in 90% DMSO, as well as 4 reference compounds plus 16 high controls and 16 low (inhibited) controls. Predilution plates were prepared by dispensing pipetting 250 nl of compound solutions into 384-well polypropylen plates using a Hummingwell nanoliter dispensor. Compounds were prediluted by the addition of 49.75 ul complete growth medium. 10ul of prediluted compound solution were transferred to the cell plate using a 384-well pipettor, resulting in a final DMSO concentration of 0.11%. […]\nFor detection of p-AKT(Ser473), the SureFire® p-Akt 1/2 (Ser473) Assay Kit (PerkinElmer, U.S.A) was used. […] The plate was read on an AlphaScreen® compatible plate reader, using standard AlphaScreen® settings."}},
  "data": [
    {"smiles": "COc1ncc(N2CCOc3cnc(O[C@H]4CCN(C(=O)C5CCS(=O)(=O)CC5)C4)cc32)cc1C", "note": "[Example F1, (1,1-Dioxo-hexahydro-1lambda*6*-thiopyran-4-yl)-{(S)-3-[1-(6-methoxy-5-methyl-pyridin-3-yl)-2,3-dihydro-1H-pyrido[3,4-b][1,4]oxazin-7-yloxy]-pyrrolidin-1-yl}-methanone]", "values": [
      {"measurement": "IC50", "setting": "[1]", "value": 109, "unit": "nM"},
      {"measurement": "IC50", "setting": "[2]", "value": 3, "unit": "nM"},
      {"measurement": "IC50", "setting": "[3]", "value": 11, "unit": "nM"}
    ]}
  ]
}
